Source: article PMC6804295, “Design, Synthesis, and Biological Evaluation of Novel Thienopyrimidine Derivatives as PI3Kα Inhibitors” (Molecules, 2019)

What was measured:
[1] = test system: PC-3 (human prostate cancer); assay: MTT cytotoxicity assay, PC-3 cells; type: cell-based; conditions: >50 = no inhibitory effect at 50 μM
Method: (§1) The cancer cell lines were cultured in minimum essential medium (MEM) supplement with 10% fetal bovine serum (FBS). Approximately, 4 × 10 ^3 cells, suspended in MEM medium, were plated onto each well of a 96-well plate and incubated in 5% CO2 at 37 °C for 24 h. The test compounds at the indicated final concentrations were added to the culture medium, and cell cultures continued for 72 h. Fresh MTT was added to each well at a terminal concentration of 5 µg/mL and incubated with cells at 37 °C for 4 h. The formazan crystals were dissolved in 100 µL of DMSO in each well, and the absorbency at 492 nm (for absorbance of MTT formazan) and 630 nm (for the reference wavelength) was measured with an enzyme linked immunosorbent assay (ELISA) reader (MR-96A Mindray Elisa Microplate Reader, Guangzhou, China). All compounds were tested three times in each of the cell lines. The results expressed as inhibition rates or IC50 was the averages of […] and calculated using the Bacus Laboratories Inc. Slide Scanner (Bliss) software (the Bacus Laboratories Inc. Slide Scanner (BLISS) system, Lombard, IL, USA).

A549 (human lung cancer) = assay: MTT cytotoxicity assay, A549 cells; type: cell-based; conditions: 72 h, >50 = no inhibitory effect at 50 μM
Method: as §1

[2] = test system: MCF-7 (human breast cancer); assay: MTT cytotoxicity assay, MCF-7 cells; type: cell-based; conditions: >50 = no inhibitory effect at 50 μM
Method: as §1

HepG2 (human hepatoma) = assay: MTT cytotoxicity assay, HepG2 cells; type: cell-based; conditions: >50 = no inhibitory effect at 50 μM
Method: as §1

PI3Kα = PI3Kα (Homo sapiens, UniProt P42336); assay: PI3Kα Kinase-Glo Luminescent Kinase Assay; type: biochemical; conditions: 1 µM ATP, 60 min
mTOR = mTOR (Homo sapiens, UniProt P42345); assay: mTOR Kinase-Glo Luminescent Kinase Assay; type: biochemical; conditions: 10 µM ATP, 60 min

Sequence of PI3Kα (P42336 whole entry): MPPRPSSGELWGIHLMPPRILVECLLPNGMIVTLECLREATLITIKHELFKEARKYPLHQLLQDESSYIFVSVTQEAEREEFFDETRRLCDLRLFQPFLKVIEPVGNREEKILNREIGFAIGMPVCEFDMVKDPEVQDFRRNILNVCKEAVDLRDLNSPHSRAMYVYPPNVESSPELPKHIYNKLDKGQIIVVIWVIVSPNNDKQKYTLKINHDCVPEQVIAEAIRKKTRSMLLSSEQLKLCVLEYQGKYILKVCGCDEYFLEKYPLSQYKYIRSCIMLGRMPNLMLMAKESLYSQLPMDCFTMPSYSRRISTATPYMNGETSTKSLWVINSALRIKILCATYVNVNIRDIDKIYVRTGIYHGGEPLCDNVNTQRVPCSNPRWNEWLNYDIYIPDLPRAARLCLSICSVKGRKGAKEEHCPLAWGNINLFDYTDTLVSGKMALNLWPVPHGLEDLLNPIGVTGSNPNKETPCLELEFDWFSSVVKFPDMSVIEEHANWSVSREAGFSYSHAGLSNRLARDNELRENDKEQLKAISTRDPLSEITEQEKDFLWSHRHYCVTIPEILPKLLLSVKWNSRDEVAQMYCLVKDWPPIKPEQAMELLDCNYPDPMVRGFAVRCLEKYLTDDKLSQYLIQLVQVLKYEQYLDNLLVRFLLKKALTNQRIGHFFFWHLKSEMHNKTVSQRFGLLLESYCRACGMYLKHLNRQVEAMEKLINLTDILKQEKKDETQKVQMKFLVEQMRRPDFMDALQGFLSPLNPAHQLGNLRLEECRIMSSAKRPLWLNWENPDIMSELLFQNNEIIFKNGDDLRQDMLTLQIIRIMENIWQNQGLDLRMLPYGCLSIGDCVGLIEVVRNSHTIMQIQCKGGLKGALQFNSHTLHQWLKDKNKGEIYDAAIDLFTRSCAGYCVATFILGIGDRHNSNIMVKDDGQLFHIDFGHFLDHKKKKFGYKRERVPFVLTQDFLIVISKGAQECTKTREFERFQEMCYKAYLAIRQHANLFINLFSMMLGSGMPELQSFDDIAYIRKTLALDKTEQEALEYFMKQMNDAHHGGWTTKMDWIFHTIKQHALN
Sequence of PI3Kα (P27986 whole entry partner): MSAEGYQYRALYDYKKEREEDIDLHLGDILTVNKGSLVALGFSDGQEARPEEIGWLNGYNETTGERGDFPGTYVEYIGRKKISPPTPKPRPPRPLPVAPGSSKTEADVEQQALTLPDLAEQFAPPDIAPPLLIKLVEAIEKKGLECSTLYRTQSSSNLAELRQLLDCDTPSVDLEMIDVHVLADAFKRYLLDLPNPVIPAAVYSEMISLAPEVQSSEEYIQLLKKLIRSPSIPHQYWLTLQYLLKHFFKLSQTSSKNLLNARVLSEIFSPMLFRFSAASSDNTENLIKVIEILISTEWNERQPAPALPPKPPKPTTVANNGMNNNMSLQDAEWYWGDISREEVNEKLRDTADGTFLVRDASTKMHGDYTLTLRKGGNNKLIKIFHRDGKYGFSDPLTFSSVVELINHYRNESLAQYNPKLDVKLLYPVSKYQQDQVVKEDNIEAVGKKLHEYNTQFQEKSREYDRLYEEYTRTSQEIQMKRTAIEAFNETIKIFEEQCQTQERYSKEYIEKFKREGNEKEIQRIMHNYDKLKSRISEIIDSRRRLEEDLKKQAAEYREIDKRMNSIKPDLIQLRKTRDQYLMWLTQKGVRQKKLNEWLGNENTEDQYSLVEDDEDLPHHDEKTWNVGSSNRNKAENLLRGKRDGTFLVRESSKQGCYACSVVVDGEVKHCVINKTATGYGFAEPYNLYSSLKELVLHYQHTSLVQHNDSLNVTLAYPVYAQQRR

c1ccc(C2=NN(c3nc(N4CCOCC4)c4ccsc4n3)[C@@H](c3ccccc3)C2)cc1 (stereo in doubt) [Compound 9a] gave an IC50 ([1]; 72 h) of 12.3 ± 0.96 µM, an IC50 ([1]; Homo sapiens, PC-3, 72 h) of 14.7 ± 1.32 µM and an IC50 (A549 (human lung cancer)) of 11.3 ± 1.19 µM. For the same molecule, the IC50 ([2]; 72 h) was 14.7 ± 1.32 µM, the IC50 ([2]; Homo sapiens, MCF7, 72 h) was 9.8 ± 0.93 µM and the IC50 (HepG2 (human hepatoma); 72 h) was 9.8 ± 0.93 µM. It also gave an IC50 (HepG2 (human hepatoma); Homo sapiens, HepG2, 72 h) of 12.3 ± 0.96 µM, an IC50 (PI3Kα) of 9.47 ± 0.63 µM and an IC50 (mTOR) of 39.9 ± 7.6 µM. It also gave a melting point of 202 to 205 °C.

For c1ccc(C2=NN(c3nc(N4CCOCC4)c4sccc4n3)[C@@H](c3ccccc3)C2)cc1 (stereo in doubt) [Compound 15a], the IC50 ([1]; Homo sapiens, PC-3, 72 h) was 15.5 ± 1.21 µM, the IC50 (A549 (human lung cancer)) was 16.9 ± 1.61 µM and the IC50 ([2]; Homo sapiens, MCF7, 72 h) was 17 ± 1.68 µM. For the same molecule, the IC50 (HepG2 (human hepatoma); Homo sapiens, HepG2, 72 h) was 13.1 ± 1.48 µM, the IC50 (PI3Kα) was 25.7 ± 2.33 µM and the IC50 (mTOR) was over 50 µM. For the same molecule, the melting point was 131.2 to 132.5 °C.

Work on Fc1ccc(C2=NN(c3nc(N4CCOCC4)c4ccsc4n3)C(c3ccc(F)cc3)C2)cc1 (stereo not shown) [Compound 9c, 4-(2-(3,5-bis(4-fluorophenyl)-4,5-dihydro-1H-pyrazol-1-yl)thieno[2,3-d]pyrimidin-4-yl)Morpholine] yielded an IC50 ([1]; Homo sapiens, PC-3, 72 h) of 18.2 ± 1.55 µM, an IC50 (A549 (human lung cancer)) of 24.23 ± 0.15 µM and an IC50 ([2]; Homo sapiens, MCF7, 72 h) of 22.37 ± 0.17 µM. The IC50 (HepG2 (human hepatoma); Homo sapiens, HepG2, 72 h) was 17.4 ± 0.98 µM and the melting point was 225 to 227 °C.

Work on Fc1ccc(C2=NN(c3nc(N4CCOCC4)c4sccc4n3)C(c3ccc(F)cc3)C2)cc1 (stereo not shown) [Compound 15c, 4-(2-(3,5-bis(4-fluorophenyl)-4,5-dihydro-1H-pyrazol-1-yl)thieno[3,2-d]pyrimidin-4-yl)Morpholine] yielded an IC50 ([1]; Homo sapiens, PC-3, 72 h) of 25.3 ± 2.39 µM, an IC50 (A549 (human lung cancer)) of 39 ± 3.32 µM and an IC50 ([2]; Homo sapiens, MCF7, 72 h) of 37.1 ± 2.99 µM. The IC50 (HepG2 (human hepatoma); Homo sapiens, HepG2, 72 h) was 18.9 ± 1.86 µM and the melting point was 254.7 to 255.4 °C.

Molecule COc1ccc(C2CC(c3ccc(Cl)c(Cl)c3)=NN2c2nc(N3CCOCC3)c3c4c(sc3n2)CCCC4)cc1 (stereo not shown) [Compound 21a, 4-(2-(3-(3,4-dichlorophenyl)-5-(4-methoxyphenyl)-4,5-dihydro-1H-pyrazol-1-yl)-5,6,7,8-tetrahydrobenzo[4,5]thieno[2,3-d]pyrimidin-4-yl)morpholine] has an IC50 ([1]; Homo sapiens, PC-3, 72 h) of 31.8 ± 0.95 µM, an IC50 (A549 (human lung cancer)) of 27.68 ± 0.1 µM and an IC50 (HepG2 (human hepatoma); Homo sapiens, HepG2, 72 h) of 32.4 ± 1.84 µM. It also gave a melting point of 252 to 253 °C.

Work on Cc1ccc(C2CC(c3ccc(Br)cc3)=NN2c2nc(N3CCOCC3)c3c4c(sc3n2)CCCC4)cc1 (stereo not shown) [Compound 21b, 4-(2-(3-(4-bromophenyl)-5-(p-tolyl)-4,5-dihydro-1H-pyrazol-1-yl)-5,6,7,8-tetrahdrobenzo[4,5]thieno[2,3-d]pyrimidin-4-yl)morpholine] yielded an IC50 ([1]; Homo sapiens, PC-3, 72 h) of 20.6 ± 0.63 µM, an IC50 (A549 (human lung cancer)) of 11.59 ± 0.11 µM and an IC50 ([2]; Homo sapiens, MCF7, 72 h) of 15.3 ± 0.83 µM. For the same molecule, the IC50 (HepG2 (human hepatoma); Homo sapiens, HepG2, 72 h) was 12.4 ± 0.96 µM and the melting point was 243 to 244 °C.

In the case of c1ccc(C2=NN(c3nc(N4CCOCC4)c4c5c(sc4n3)CCCC5)C(c3ccccc3)C2)cc1 (stereo not shown) [Compound 21c, 4-(2-(3,5-diphenyl-4,5-dihydro-1H-pyrazol-1-yl)-5,6,7,8-tetrahydrobenzo[4,5]thiophene[2,3-d]pyramidin-4-yl)morpholine], the IC50 ([1]; Homo sapiens, PC-3, 72 h) is reported as over 50 µM, the IC50 (A549 (human lung cancer)) is reported as 42 ± 1.49 µM and the IC50 ([2]; Homo sapiens, MCF7, 72 h) is reported as over 50 µM. The IC50 (HepG2 (human hepatoma); Homo sapiens, HepG2, 72 h) was over 50 µM and the melting point was 212 to 213 °C.

COc1ccc(C2CC(c3ccc(F)cc3)=NN2c2nc(N3CCOCC3)c3c4c(sc3n2)CCCC4)cc1 (stereo not shown) [Compound 21d, 4-(2-(3-(4-fluorophenyl)-5-(4-methoxyphenyl)-4,5-dihydro-1H-pyrazol-1-yl)-5,6,7,8-tetrahydrobenzo[4,5]thieno[2,3-d]pyrimidin-4-yl)morpholine] showed an IC50 ([1]; Homo sapiens, PC-3, 72 h) of 25.3 ± 0.75 µM, an IC50 (A549 (human lung cancer)) of 17.8 ± 1.1 µM and an IC50 ([2]; Homo sapiens, MCF7, 72 h) of 29.5 ± 1.87 µM. It also gave an IC50 (HepG2 (human hepatoma); Homo sapiens, HepG2, 72 h) of 23.7 ± 0.11 µM and a melting point of 189 to 193 °C.

Work on Fc1ccc(C2CC(c3ccc(Br)cc3)=NN2c2nc(N3CCOCC3)c3c4c(sc3n2)CCCC4)cc1 (stereo not shown) [Compound 21e, 4-(2-(3-(4-bromophenyl)-5-(4-fluorophenyl)-4,5-dihydro-1H-pyrazol-1-yl)-5,6,7,8-tetrahydrobenzo[4,5]thieno[2,3-d]pyrimidin-4-yl)morpholine] yielded an IC50 ([1]; Homo sapiens, PC-3, 72 h) of over 50 µM, an IC50 (A549 (human lung cancer)) of over 50 µM and an IC50 ([2]; Homo sapiens, MCF7, 72 h) of over 50 µM. It also gave an IC50 (HepG2 (human hepatoma); Homo sapiens, HepG2, 72 h) of 38.7 ± 1.72 µM and a melting point of 272 to 273 °C.

For Brc1ccc(C2=NN(c3nc(N4CCOCC4)c4c5c(sc4n3)CCCC5)C(c3ccccc3)C2)cc1 (stereo not shown) [Compound 21f, 4-(2-(3-(4-bromophenyl)-5-phenyl-4,5-dihydro-1H-pyrazol-1-yl)-5,6,7,8-tetrahydrobenzo[4,5]thieno[2,3-d]pyrimidin-4-yl)morpholine], the IC50 ([1]; Homo sapiens, PC-3, 72 h) was over 50 µM, the IC50 (A549 (human lung cancer)) was over 50 µM and the IC50 ([2]; Homo sapiens, MCF7, 72 h) was over 50 µM. The IC50 (HepG2 (human hepatoma); Homo sapiens, HepG2, 72 h) was over 50 µM and the melting point was 257 to 259 °C.

For Clc1ccc(C2=NN(c3nc(N4CCOCC4)c4c5c(sc4n3)CCCC5)C(c3ccc(Br)cc3)C2)cc1Cl (stereo not shown) [Compound 21g, 4-(2-(5-(4-bromophenyl)-3-(3,4-dichlorophenyl)-4,5-dihydro-1H-pyrazol-1-yl)-5,6,7,8-tetrahydrobenzo[4,5]thieno[2,3-d]pyrimidin-4-yl)morpholine], the IC50 ([1]; Homo sapiens, PC-3, 72 h) was over 50 µM, the IC50 (A549 (human lung cancer)) was over 50 µM and the IC50 ([2]; Homo sapiens, MCF7, 72 h) was over 50 µM. For the same molecule, the IC50 (HepG2 (human hepatoma); Homo sapiens, HepG2, 72 h) was over 50 µM and the melting point was 231 to 234 °C.

In the case of Clc1ccc(C2=NN(c3nc(N4CCOCC4)c4c5c(sc4n3)CCCC5)C(c3ccccc3)C2)cc1Cl (stereo not shown) [Compound 21h, 4-(2-(3-(3,4-dichlorophenyl)-5-phenyl-4,5-dihydro-1H-pyrazol-1-yl)-5,6,7,8-tetrahydrobenzo[4,5]thieno[2,3-d]pyrimidin-4-yl)morpholine], the IC50 ([1]; Homo sapiens, PC-3, 72 h) is reported as over 50 µM, the IC50 (A549 (human lung cancer)) is reported as 23.5 ± 0.82 µM and the IC50 ([2]; Homo sapiens, MCF7, 72 h) is reported as over 50 µM. The IC50 (HepG2 (human hepatoma); Homo sapiens, HepG2, 72 h) was over 50 µM and the melting point was 293 to 294 °C.

CS(=O)(=O)N1CCN(Cc2cc3nc(-c4cccc5[nH]ncc45)nc(N4CCOCC4)c3s2)CC1 [GDC-0941, reference compound] showed an IC50 ([1]; Homo sapiens, PC-3, 72 h) of 4.35 ± 0.33 µM, an IC50 (A549 (human lung cancer)) of 6.99 ± 0.21 µM and an IC50 ([2]; Homo sapiens, MCF7, 72 h) of 0.2 ± 0.08 µM. For the same molecule, the IC50 (HepG2 (human hepatoma); Homo sapiens, HepG2, 72 h) was 0.07 ± 0.03 µM.
